Reference: patent US20240393292A1, “ALLERGY ANTIGEN AND EPITOPE THEREOF” (HOYU CO., LTD., priority 2019, published 2024)
Each block holds one substance with its values, some of them ahead of it.

System: IgE antibodies from patients
Assay: Wheat epitope mapping (2): overlapping 10-amino-acid peptide fragments shifted by one amino acid;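 for Rank of partial sequence as epitope binding to IgE antibody: key = sequence deemed particularly important within the common 15-residue sequence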;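 for epitope sequence binding to IgE antibody, rank (Key/Preferably/More preferably): key of grades: preferably = shorter partial sequence still acting as epitope; more preferably = sequence improving IgE binding; key = particularly important sequence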
Type: binding, human
How it was run: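 Cellulose-bound 10-mer peptides offset by one residue were probed with patient serum IgE and detected by chemiluminescence. Secondary-antibody-only signals were subtracted per peptide. Residual binding was expressed as % of the parent overlapping peptide, scored as none (<30%), poor (30–<50%), somewhat poor (50–<70%) or retained (≥70%).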

[1] = serum of patient P35 (WDEIA), sequence without X
[2] = serum of patient P7 (WDEIA), sequence without X
[3] = serum of patient P26 (WDEIA), partial sequence
[4] = serum of patient P33 (WDEIA), sequence without X
[5] = serum of patient G3 (adult, general immediate type allergy to wheat), sequence without X
[6] = serum of patient P26 (WDEIA), sequence without X

Substance: 1863 (VIAEYTVRTL; REGION 1..10: note = epitope) [compound 1863]
epitope sequence binding to IgE antibody, rank (Key/Preferably/More preferably) (serum of patient P25 (WDEIA)): Key

Substance: 1487 (YLQPQQPISQ; REGION 1..10: note = epitope) [compound 1487]
Rank of partial sequence as epitope binding to IgE antibody [1]: Preferably

Substance: 1743 (EAAN; REGION 1..4: note = epitope) [compound 1743]
epitope sequence binding to IgE antibody, rank (Key/Preferably/More preferably) (serum of patient G4 (adult, general immediate type allergy to wheat)): Key

Substance: 2659 (EAAEMNKRSF; REGION 1..10: note = epitope) [compound 2659]
Epitope sequence binding to IgE antibody, rank of the sequence (serum of patient P35 (WDEIA), partial sequence): Preferably

Substance: 2727 (GIGTVPVGR; REGION 1..9: note = epitope) [compound 2727]
Epitope sequence binding to IgE antibody, rank of the sequence (serum of patient P27 (WDEIA), partial sequence): Key

Substance: 1806 (ELEALPK; REGION 1..7: note = epitope) [compound 1806]
epitope sequence binding to IgE antibody, rank (Key/Preferably/More preferably) (serum of patient P22 (WDEIA)): Key

Substance: 1388 (QQPLPPQQQ; REGION 1..9: note = epitope) [compound 1388]
Epitope sequence binding to IgE antibody, rank of the sequence (serum of patient P14 (WDEIA), sequence without X): Preferably

Substance: 1415 (YLQPQQPIS; REGION 1..9: note = epitope) [compound 1415]
Epitope sequence binding to IgE antibody, rank of the sequence (serum of patient P4 (WDEIA), sequence without X): Key

Substance: 1684 (FVPISG; REGION 1..6: note = epitope) [compound 1684]
Rank of partial sequence as epitope binding to IgE antibody (serum of patient G9 (adult, general immediate type allergy to wheat), sequence without X): Key

Substance: 1642 (YNPD; REGION 1..4: note = epitope) [compound 1642]
Rank of partial sequence as epitope binding to IgE antibody [1]: Key

Substance: 1291 (LPRS; REGION 1..4: note = epitope) [compound 1291]
Epitope sequence binding to IgE antibody, rank of the sequence (serum of patient P53 (child, general immediate type allergy to wheat), sequence without X): Key

Substance: 2634 (EAAE; REGION 1..4: note = epitope) [compound 2634]
Epitope sequence binding to IgE antibody, rank of the sequence (serum of patient P7 (WDEIA), partial sequence): Key

Substance: 2567 (QLVQQ; REGION 1..5: note = epitope) [compound 2567]
Epitope sequence binding to IgE antibody, rank of the sequence [3]: Key

Substance: 1802 (SGKELEALPK; REGION 1..10: note = epitope) [compound 1802]
epitope sequence binding to IgE antibody, rank (Key/Preferably/More preferably) (serum of patient P18 (WDEIA)): Preferably

Substance: 2590 (QLVQQLCC; REGION 1..8: note = epitope) [compound 2590]
Epitope sequence binding to IgE antibody, rank of the sequence (serum of patient P34 (WDEIA), partial sequence): Preferably

Substance: 1479 (YLQPQQPISQ; REGION 1..10: note = epitope) [compound 1479]
Rank of partial sequence as epitope binding to IgE antibody [4]: Preferably

Substance: 1910 (QFPGQQQ; REGION 1..7: note = epitope) [compound 1910]
epitope sequence binding to IgE antibody, rank (Key/Preferably/More preferably) (serum of patient P7 (WDEIA)): Key

Substance: 2640 (RFEKEAAEMN; REGION 1..10: note = epitope) [compound 2640]
Epitope sequence binding to IgE antibody, rank of the sequence (serum of patient P14 (WDEIA), partial sequence): Preferably

Substance: 1340 (NVEN; REGION 1..4: note = epitope) [compound 1340]
Epitope sequence binding to IgE antibody, rank of the sequence (serum of patient P32 (WDEIA), sequence without X): Key

Substance: 2697 (YKGPTL; REGION 1..6: note = epitope) [compound 2697]
Epitope sequence binding to IgE antibody, rank of the sequence (serum of patient G6 (adult, general immediate type allergy to wheat), partial sequence): Key

Substance: 1799 (KFLK; REGION 1..4: note = epitope) [compound 1799]
epitope sequence binding to IgE antibody, rank (Key/Preferably/More preferably) (serum of patient P15 (WDEIA)): Key

Substance: 2289 (GGIDK; REGION 1..5: note = epitope) [compound 2289]
Epitope sequence binding to IgE antibody, rank of the sequence (Key/Preferably/More preferably) [4]: Key

Substance: 1464 (QQPISQQQA; REGION 1..9: note = epitope) [compound 1464]
Rank of partial sequence as epitope binding to IgE antibody (serum of patient P24 (WDEIA), sequence without X): More preferably

Substance: 2260 (SRLLR; REGION 1..5: note = epitope) [compound 2260]
Epitope sequence binding to IgE antibody, rank of the sequence (Key/Preferably/More preferably) (serum of patient G1 (adult, general immediate type allergy to wheat), sequence without X): Key

Substance: 1643 (PDKVPFVPIS; REGION 1..10: note = epitope) [compound 1643]
Rank of partial sequence as epitope binding to IgE antibody [1]: Key

Substance: 1668 (FVPISG; REGION 1..6: note = epitope) [compound 1668]
Rank of partial sequence as epitope binding to IgE antibody [5]: Key

Substance: 1539 (LVQQQQFLG; REGION 1..9: note = epitope) [compound 1539]
Rank of partial sequence as epitope binding to IgE antibody (serum of patient P17 (WDEIA), sequence without X): More preferably

Substance: 1740 (KEAANF; REGION 1..6: note = epitope) [compound 1740]
epitope sequence binding to IgE antibody, rank (Key/Preferably/More preferably) (serum of patient G1 (adult, general immediate type allergy to wheat)): Key

Substance: 2269 (LGGIDK; REGION 1..6: note = epitope) [compound 2269]
Epitope sequence binding to IgE antibody, rank of the sequence (Key/Preferably/More preferably) [2]: Key

Substance: 1959 (QFPGQQ; REGION 1..6: note = epitope) [compound 1959]
epitope sequence binding to IgE antibody, rank (Key/Preferably/More preferably) (serum of patient P28 (WDEIA)): Preferably

Substance: 2346 (YVTEIV; REGION 1..6: note = epitope) [compound 2346]
Epitope sequence binding to IgE antibody, rank of the sequence (Key/Preferably/More preferably) (serum of patient P9 (WDEIA), sequence without X): Preferably

Substance: 2560 (LQQSTYQLVQ; REGION 1..10: note = epitope) [compound 2560]
Epitope sequence binding to IgE antibody, rank of the sequence (serum of patient P22 (WDEIA), partial sequence): Key

Substance: 2655 (EAAEMNK; REGION 1..7: note = epitope) [compound 2655]
Epitope sequence binding to IgE antibody, rank of the sequence (serum of patient P32 (WDEIA), partial sequence): Preferably

Substance: 1630 (PDKVPFVPIS; REGION 1..10: note = epitope) [compound 1630]
Rank of partial sequence as epitope binding to IgE antibody (serum of patient P27 (WDEIA), sequence without X): Key

Substance: 1761 (YLKKVGYN; REGION 1..8: note = epitope) [compound 1761]
epitope sequence binding to IgE antibody, rank (Key/Preferably/More preferably) (serum of patient P18 (WDEIA)): Key

Substance: 1370 (QPLPPQQ; REGION 1..7: note = epitope) [compound 1370]
Epitope sequence binding to IgE antibody, rank of the sequence (Key/Preferably/More preferably/Further preferably) (serum of patient P2 (WDEIA), sequence without X): Key

Continued, values first:

Rank of partial sequence as epitope binding to IgE antibody [2]: Preferably
Substance: 1518 (QVPLVQQ; REGION 1..7: note = epitope) [compound 1518]

epitope sequence binding to IgE antibody, rank (Key/Preferably/More preferably) (serum of patient P26 (WDEIA)): Key
Substance: 1955 (QFPGQ; REGION 1..5: note = epitope) [compound 1955]

Epitope sequence binding to IgE antibody, rank of the sequence (serum of patient P28 (WDEIA), partial sequence): Preferably
Substance: 2730 (YKIGGIGTV; REGION 1..9: note = epitope) [compound 2730]

epitope sequence binding to IgE antibody, rank (Key/Preferably/More preferably) (serum of patient P57 (child, general immediate type allergy to wheat)): Preferably
Substance: 1737 (KEAANFT; REGION 1..7: note = epitope) [compound 1737]

Epitope sequence binding to IgE antibody, rank of the sequence [3]: Key
Substance: 2723 (KIGG; REGION 1..4: note = epitope) [compound 2723]

epitope sequence binding to IgE antibody, rank (Key/Preferably/More preferably) (serum of patient P4 (WDEIA)): Key
Substance: 1905 (VPLVQ; REGION 1..5: note = epitope) [compound 1905]

Epitope sequence binding to IgE antibody, rank of the sequence (serum of patient P21 (WDEIA), sequence without X): Key
Substance: 1189 (QQFPPQ; REGION 1..6: note = epitope) [compound 1189]

epitope sequence binding to IgE antibody, rank (Key/Preferably/More preferably) (serum of patient P2 (WDEIA)): Key
Substance: 1898 (QQFPGQQQ; REGION 1..8: note = epitope) [compound 1898]

Rank of partial sequence as epitope binding to IgE antibody (serum of patient P3 (WDEIA), sequence without X): Preferably
Substance: 1509 (QVPLVQQ; REGION 1..7: note = epitope) [compound 1509]

Epitope sequence binding to IgE antibody, rank of the sequence (Key/Preferably/More preferably) (serum of patient P12 (WDEIA), sequence without X): Preferably
Substance: 2424 (AWSGK; REGION 1..5: note = epitope) [compound 2424]

Rank of partial sequence as epitope binding to IgE antibody [5]: Key
Substance: 1667 (NPDKVP; REGION 1..6: note = epitope) [compound 1667]

epitope sequence binding to IgE antibody, rank (Key/Preferably/More preferably) (serum of patient P35 (WDEIA)): Preferably
Substance: 1714 (KEAANF; REGION 1..6: note = epitope) [compound 1714]

Epitope sequence binding to IgE antibody, rank of the sequence (Key/Preferably/More preferably) [2]: Key
Substance: 2221 (IRNYR; REGION 1..5: note = epitope) [compound 2221]

Epitope sequence binding to IgE antibody, rank of the sequence [6]: Preferably
Substance: 1242 (PQQPPC; REGION 1..6: note = epitope) [compound 1242]

Epitope sequence binding to IgE antibody, rank of the sequence (serum of patient G7 (adult, general immediate type allergy to wheat), sequence without X): Key
Substance: 1295 (VSMILPRSD; REGION 1..9: note = epitope) [compound 1295]

Epitope sequence binding to IgE antibody, rank of the sequence (Key/Preferably/More preferably) (serum of patient P8 (WDEIA), sequence without X): Preferably
Substance: 2274 (DKRVIERFEK; REGION 1..10: note = epitope) [compound 2274]

Rank of partial sequence as epitope binding to IgE antibody [6]: Key
Substance: 1468 (YLQPQQP; REGION 1..7: note = epitope) [compound 1468]

epitope sequence binding to IgE antibody, rank (Key/Preferably/More preferably) (serum of patient P55 (child, general immediate type allergy to wheat)): Key
Substance: 1775 (LKKVGYN; REGION 1..7: note = epitope) [compound 1775]

Epitope sequence binding to IgE antibody, rank of the sequence (Key/Preferably/More preferably/Further preferably) (serum of patient P50 (child, general immediate type allergy to wheat), sequence without X): Key
Substance: 2247 (LLRGIRNYRV; REGION 1..10: note = epitope) [compound 2247]

epitope sequence binding to IgE antibody, rank (Key/Preferably/More preferably) (serum of patient P34 (WDEIA)): Preferably
Substance: 1882 (TVRTLQRT; REGION 1..8: note = epitope) [compound 1882]

epitope sequence binding to IgE antibody, rank (Key/Preferably/More preferably) (serum of patient G9 (adult, general immediate type allergy to wheat)): Key
Substance: 1787 (KEVSSYLK; REGION 1..8: note = epitope) [compound 1787]
